Source: the supplement of paper PMC10307832

Assays:
Experiment in all cases: relative viability (nuclei count vs DMSO), 5 days (fraction); higher = more cells survive
Ispinesib + Crizotinib = compound: Cc1ccc(C(=O)N(CCCN)[C@@H](c2nc3cc(Cl)ccc3c(=O)n2Cc2ccccc2)C(C)C)cc1 [Ispinesib] + C[C@@H](Oc1cc(-c2cnn(C3CCNCC3)c2)cnc1N)c1c(Cl)ccc(F)c1Cl [Crizotinib] (partner 1 µM)
Summary of the method: (§1)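 Relative viability equals treated-well nuclei counts divided by vehicle-well nuclei counts. Counts came from 4× images of lung cancer cell lines grown in 1536-well plates for 5 days after pin-tool dosing on the day after seeding. Dosing used one drug alone or a fixed anchor-drug dose plus five library-drug doses (not always all listed) in √10 steps, and values are medians of duplicate plates.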

Linsitinib + Pemetrexed = compound: C[C@]1(O)C[C@@H](c2nc(-c3ccc4ccc(-c5ccccc5)nc4c3)c3c(N)nccn32)C1 [Linsitinib] + Nc1nc2[nH]cc(CCc3ccc(C(=O)N[C@@H](CCC(=O)O)C(=O)O)cc3)c2c(=O)[nH]1 [Pemetrexed] (partner 0.2 µM)
Summary of the method: as §1

Ispinesib + Luminespib = compound: Cc1ccc(C(=O)N(CCCN)[C@@H](c2nc3cc(Cl)ccc3c(=O)n2Cc2ccccc2)C(C)C)cc1 [Ispinesib] + CCNC(=O)c1noc(-c2cc(C(C)C)c(O)cc2O)c1-c1ccc(CN2CCOCC2)cc1 [Luminespib] (partner 0.01 µM)
Summary of the method: as §1

Linsitinib + Dasatinib = compound: C[C@]1(O)C[C@@H](c2nc(-c3ccc4ccc(-c5ccccc5)nc4c3)c3c(N)nccn32)C1 [Linsitinib] + Cc1nc(Nc2ncc(C(=O)Nc3c(C)cccc3Cl)s2)cc(N2CCN(CCO)CC2)n1 [Dasatinib] (partner 0.075 µM)
Summary of the method: as §1

Cell Line	relative viability (Ispinesib + Crizotinib; first compound 0.001 µM)	relative viability (Ispinesib + Crizotinib; first compound 0.003162 µM)	relative viability (Ispinesib + Crizotinib; first compound 0.01 µM)	relative viability (Ispinesib + Crizotinib; first compound 0.03162 µM)	relative viability (Ispinesib + Crizotinib; first compound 0.1 µM)	relative viability (Linsitinib + Pemetrexed; first compound 0.01 µM)	relative viability (Linsitinib + Pemetrexed; first compound 0.03162 µM)	relative viability (Linsitinib + Pemetrexed; first compound 0.1 µM)	relative viability (Linsitinib + Pemetrexed; first compound 1 µM)	relative viability (Ispinesib + Luminespib; first compound 0.001 µM)	relative viability (Ispinesib + Luminespib; first compound 0.003162 µM)	relative viability (Ispinesib + Luminespib; first compound 0.01 µM)	relative viability (Ispinesib + Luminespib; first compound 0.03162 µM)	relative viability (Ispinesib + Luminespib; first compound 0.1 µM)	relative viability (Linsitinib + Dasatinib; first compound 0.01 µM)	relative viability (Linsitinib + Dasatinib; first compound 0.03162 µM)	relative viability (Linsitinib + Dasatinib; first compound 0.1 µM)	relative viability (Linsitinib + Dasatinib; first compound 0.3162 µM)	relative viability (Linsitinib + Dasatinib; first compound 1 µM)	relative viability (Linsitinib + Pemetrexed; first compound 0.3162 µM)
HCC-827	0.965	0.91	0.957	0.918	0.69	0.149	0.24	0.32	0.262	0.69	0.536	0.876	0.482	0.529	0.398	0.389	0.311	0.597	0.423	
SW 1573	0.948	0.66	1.03	0.724	0.296	0.912	0.676	0.921	0.732	0.234	0.198	0.13	0.151	0.148	0.454	0.454	0.453	0.348	0.252	0.828
NCI-H2023	0.616	0.657	0.598	0.457	0.13	0.257	0.134	0.238	0.176	0.793	0.628	1.07	0.29	0.179	0.472	0.373	0.528	0.29	0.218	0.0952
EPLC-272H	1.06	0.842	1.23	0.883	0.805	0.366	0.193	0.325	0.32	0.215	0.326	0.25	0.196	0.234	0.359	0.407			0.261	0.244
SK-LU-1	1.05	0.932	0.968	0.776	0.439	0.913	0.686	0.997	0.985	0.212	0.224	0.219	0.194	0.178	0.193		0.168	0.182	0.115	0.894
NCI-H358	0.617	0.515	0.665	0.409	0.424	0.187	0.168	0.183	0.162	0.424	0.435	0.549	0.405	0.259	0.162	0.167	0.159	0.148	0.142	0.141
NCI-H2085	0.931	0.973	0.701	0.777	0.56	0.887	0.887	0.934	0.905	0.484	0.421	0.491	0.401	0.447	0.275	0.257	0.22	0.246	0.23	0.928
NCI-H1563	0.826	0.776	0.782	0.949	0.781	0.791	0.883	0.718	0.752	0.506	0.462	0.523	0.523	0.55	0.47	0.485	0.384	0.812	0.378	1.09
